Source: patent publication US8367873B2, “Phenyl-substituted bicyclooctane-1,3-dione derivatives” (Bayer Cropscience AG, priority 2008, dated 2013)

Tests used:
Type in all cases: in vivo
[1] = test system: monocotylidonous and dicotylidonous weed and crop plants; experiment: Herbicidal pre-emergence action (other test plants); details: pre-emergence method, 80 g/ha, greenhouse, visual assessment vs untreated controls
Source text: (§1) Seeds of monocotylidonous and dicotylidonous weed and crop plants are placed in sandy loam in wood fibre pots and covered with soil. The test compounds, formulated in the form of wettable powders (WP), are then, as an aqueous suspension with a water application rate of 600 l/ha (converted), with 0.2% of wetting agent added, applied to the surface of the covering soil in different amounts.
(§2) After the treatment, the pots are placed in a greenhouse and kept under good growth conditions for the test plants. The visual assessment of the emergence damage on the test plants is carried out after a trial period of three weeks by comparison with the untreated controls (herbicidal effect in percent: 100% effect=the plants have died, 0% effect=like control plants).

Lolium multiflorum [2] = experiment: Herbicidal pre-emergence action; details: pre-emergence method, 80 g/ha, greenhouse, visual assessment vs untreated controls
Source text: as §1, §2

Echinocloa crus-galli [3] = experiment: Herbicidal pre-emergence action; details: pre-emergence method, 80 g/ha, greenhouse, visual assessment vs untreated controls
Source text: as §1, §2

Alopecurus myosuroides [4] = experiment: Herbicidal pre-emergence action; details: pre-emergence method, 80 g/ha, greenhouse, visual assessment vs untreated controls
Source text: as §1, §2

Setaria viridis [5] = experiment: Herbicidal pre-emergence action; details: pre-emergence method, 80 g/ha, greenhouse, visual assessment vs untreated controls
Source text: as §1, §2

[6] = test system: monocotylidonous and dicotylidonous weed and crop plants; experiment: Herbicidal post-emergence action (other test plants); details: post-emergence method, 80 g/ha
How it was run: (§3)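 Greenhouse-grown weeds were treated post-emergence at the one-leaf stage, two to three weeks after sowing in sandy loam. Compounds formulated as WP were sprayed at various rates in 600 l/ha water with 0.2% wetting agent. Damage was scored visually after about three weeks versus untreated controls (0% = like control, 100% = dead).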

Lolium multiflorum [7] = experiment: Herbicidal post-emergence action; details: post-emergence method, 80 g/ha
How it was run: as §3

Echinocloa crus-galli [8] = experiment: Herbicidal post-emergence action; details: post-emergence method, 80 g/ha
How it was run: as §3

Alopecurus myosuroides [9] = experiment: Herbicidal post-emergence action; details: post-emergence method, 80 g/ha
How it was run: as §3

Setaria viridis [10] = experiment: Herbicidal post-emergence action; details: post-emergence method, 80 g/ha
How it was run: as §3

| SMILES | herbicidal effect AVEFA [1] [%] | herbicidal effect LOLMU (Lolium multiflorum [2]) [%] | herbicidal effect ECHCG (Echinocloa crus-galli [3]) [%] | herbicidal effect ALOMY (Alopecurus myosuroides [4]) [%] | herbicidal effect SETVI (Setaria viridis [5]) [%] | herbicidal effect against AVEFA (Avena fatua) [6] [%] | herbicidal effect against LOLMU (Lolium multiflorum) (Lolium multiflorum [7]) [%] | herbicidal effect against ECHCG (Echinochloa crus-galli) (Echinocloa crus-galli [8]) [%] | herbicidal effect against ALOMY (Alopecurus myosuroides) (Alopecurus myosuroides [9]) [%] | herbicidal effect against SETVI (Setaria viridis) (Setaria viridis [10]) [%] |
| --- | --- | --- | --- | --- | --- | --- | --- | --- | --- | --- |
| CCc1cc(C)cc(CC)c1C1=C(OC(=O)OC(C)C)C2CC3(CC2C1=O)OCCS3 (mixture of isomers) [I-c-33] | 90 | 100 | 90 | 90 | 60 | 90 | 90 | 100 | 80 | 80 |
| COC(=O)OC1=C(c2c(C)cc(C)cc2C)C(=O)C2CC3(CC12)OCC(C)CO3 (mixture of isomers) [I-c-53] | 50 | 90 | 0 | 100 | 60 | 80 | 100 | 90 | 100 | 90 |
| CCOC(=O)OC1=C(c2c(C)cc(C)cc2C)C(=O)C2CC3(COC(C)(C)O3)CC12 (mixture of isomers) [I-c-54] | 40 | 90 | 0 | 90 | 0 | 0 | 80 | 90 | 90 | 40 |
| COC(=O)OC1=C(c2c(C)cc(C)cc2C)C(=O)C2CC3(COC(C)(C)O3)CC12 (mixture of isomers) [I-c-56] | 20 | 90 | 20 | 90 | 0 | 20 | 80 | 80 | 90 | 40 |
| CCc1cc(C)cc(C)c1C1=C(OC(=O)OC(C)C)C2CC3(COC(C)(C)O3)CC2C1=O (mixture of isomers) [I-c-78] | 90 | 100 | 100 | 100 | 80 | 0 | 100 | 90 | 100 | 80 |
| CCc1cc(C)cc(C)c1C1=C(OC(=O)OC)C2CC3(COC(C)(C)O3)CC2C1=O (mixture of isomers) [I-c-79] | 80 | 100 | 100 | 90 | 80 | 70 | 100 | 100 | 100 | 90 |
| CCOC(=O)OC1=C(c2c(C)cc(C)cc2CC)C(=O)C2CC3(COC(C)(C)O3)CC12 (mixture of isomers) [I-c-80] | 60 | 100 | 100 | 100 | 60 | 70 | 100 | 100 | 90 | 90 |
| C=C1CC2C(=O)C(c3c(C)cc(C)cc3C)=C(OC(=O)OCC)C2C1 (racemic) [I-c-45] | 80 | 80 | 80 | 60 | 80 | 0 | 100 | 90 | 40 | 90 |
